According to patent US11466044B2 (WAYNE STATE UNIVERSITY, priority 2017, dated 2022):
≈ marks a conversion by molar mass, not a printed value. Like-named read-outs stand apart in the source and are kept apart here.

Assays:
[1] = tested on: rabbit reticulocyte ribosomes; test: in-vitro translation assay, rabbit reticulocyte ribosomes; type: biochemical; conditions: mammalian cytosolic ribosomes (rabbit)
[2] = tested on: cytosolic ribosome (human chimeric); type: biochemical; conditions: for IC50: ribosomes with a human cytosolic decoding site, read-out: IC50 Cytosolic; for Target specificity bacterial vs. Cytosolic: relative target specificity, bacterial vs. human cytosolic
From the text: (§1) The antiribosomal activity of these compounds was investigated with cell-free translation assays using both wild type bacterial ribosomes and hybrid ribosomes carrying eukaryotic decoding A sites enabling the prediction of selectivity.

[3] = tested on: mitochondrial ribosome (human chimeric); type: biochemical; conditions: for IC50: ribosomes with a human mitochondrial decoding site, read-out: IC50 Mitoch.; for Target specificity bacterial vs. Mitochondrial: relative target specificity, bacterial vs. human mitochondrial
From the text: as §1

[4] = tested on: P aeruginosa; test: MIC by broth microdilution, P aeruginosa isolates; type: cell-based, Pseudomonas aeruginosa; conditions: for MIC: Pseudomonas aeruginosa
[5] = tested on: E coli wild type; test: MIC by broth microdilution, wild type E coli; type: cell-based; conditions: for MIC: Escherichia coli; for MIC pH430 WT: E. coli strain pH430, WT
[6] = tested on: wild type bacterial ribosomes; test: in-vitro translation assay, bacterial ribosomes; type: biochemical; conditions: Mycobacterium smegmatis ribosomes; read-out: IC50 Bacterial
From the text: as §1

[7] = tested on: MRSA; test: MIC by broth microdilution, MRSA isolates; type: cell-based; conditions: for MIC: Staphylococcus aureus, MRSA
[8] = tested on: A1555G mutant mitochondrial ribosome (human chimeric); test: in-vitro translation assay, human chimeric ribosomes, A1555G mutant mitochondrial decoding site; type: biochemical; conditions: human mitochondrial decoding site with A1555G point mutation; read-out: IC50 Mitoch. A1555G
From the text: as §1

[9] = tested on: E coli carrying specific resistance determinants; test: MIC by broth microdilution, E coli carrying specific resistance determinants; type: cell-based; conditions: for MIC: Escherichia coli, read-out: MIC AG003 E. coli AAC(3)-II; for MIC AG036 ANT(4′,4′′): E. coli strain AG036, ANT(4′,4′′); for MIC AG037 APH(3′)-III: E. coli strain AG037, APH(3′)-III; for MIC AG103 armA: E. coli strain AG103, armA; for MIC pH414 AAC(6′)-I: E. coli strain pH414, AAC(6′)-I; for MIC pH415 AAC(6′)-II: E. coli strain pH415, AAC(6′)-II; for MIC pH421 APH(3)-I: E. coli strain pH421, APH(3)-I; for MIC pH422 APH(3′)-II: E. coli strain pH422, APH(3′)-II; for MIC pH423 APH(3′)-VI: E. coli strain pH423, APH(3′)-VI; for MIC pH432 ANT(4′): E. coli strain pH432, ANT(4′); for MIC AG003 E. coli AAC(3)-II: clinical isolate AG003, AAC(3)-II
[10] = clinical isolate AG031, APH(3′)-II, read-out: MIC AG031 P. aer. APH(3′)-II
[11] = clinical isolate AG032, APH(3′)-II, read-out: MIC AG032 P. aer. APH(3′)-II
[12] = clinical isolate AG001, WT, read-out: MIC AG001 E. coli WT
[13] = clinical isolate AG055, WT, read-out: MIC AG055 E. coli WT
[14] = clinical isolate AG038, read-out: MIC AG038 MRSA
[15] = clinical isolate AG039, AAC(6′)-I ANT(4′)-I, read-out: MIC AG039 MRSA AAC(6′)-I ANT(4′)-I
[16] = clinical isolate AG042, AAC(6′)-I ANT(4′)-I APH(2′), read-out: MIC AG042 MRSA AAC(6′)-I ANT(4′)-I APH(2′)
[17] = clinical isolate AG031, APH(3′)-II
[18] = clinical isolate AG032, APH(3′)-II
[19] = clinical isolate AG039, AAC(6′)-I ANT(4′)-I
[20] = clinical isolate AG042, AAC(6′)-I ANT(4′)-I APH(2′)

Row | Compound | IC50 [1] [µM] | IC50 [2] [µM] | IC50 [3] [µM] | IC50 [6] [µM] | IC50 [8] [µM] | MIC AG031 P. aer. APH(3′)-II [4, 17] [µg/mL] | MIC AG032 P. aer. APH(3′)-II [4, 18] [µg/mL] | MIC pH430 WT [5] | MIC AG001 E. coli WT ([5]; clinical isolate AG001, WT) [µg/mL] | MIC AG055 E. coli WT ([5]; clinical isolate AG055, WT) [µg/mL] | MIC AG038 MRSA ([7]; clinical isolate AG038) [µg/mL] | MIC AG039 MRSA AAC(6′)-I ANT(4′)-I [7, 19] [µg/mL] | MIC AG042 MRSA AAC(6′)-I ANT(4′)-I APH(2′) [7, 20] [µg/mL] | MIC AG044 MRSA ([7]; clinical isolate AG044) [µg/mL] | MIC AG003 E. coli AAC(3)-II [9] [µg/mL] | further results
1 | CNC1C(OC2C(N)CC(N)C(O)C2OC2OC(CO)C(O)C2O)OC(CN)C(O)C1O (stereo not shown) [DC-100] | 90 | 372 | 457 | 0.52 | 224 | – | – | – | – | – | – | – | – | – | – | MIC [4, 10]: > 128 µg/mL; MIC [4, 11]: > 128 µg/mL; MIC [5, 12]: 64 to 128 µg/mL (≈ 137 to 273 µM); MIC [5, 13]: 64 to 128 µg/mL (≈ 137 to 273 µM); MIC [7, 14]: 64 to 128 µg/mL (≈ 137 to 273 µM); MIC [7, 15]: > 128 µg/mL; MIC [7, 16]: > 128 µg/mL; MIC ([7]; clinical isolate AG044, read-out: MIC AG044 MRSA): 128 µg/mL (≈ 273 µM); MIC [9]: 64 µg/mL (≈ 137 µM)
2 | CCCC(O)C1OC(OC2C(N)CC(N)C(O)C2OC2OC(CO)C(OC3OC(CN)C(O)C(O)C3N)C2O)C(N)C(O)C1O (stereo not shown) [DC142] | 12 | 34 | 107 | 0.04 | 20 | >128 | >128 | 1 μg/ml | 8 (≈ 12.2 µM) | 8 (≈ 12.2 µM) | 4 (≈ 6.08 µM) | >128 | >128 | 2 (≈ 3.04 µM) | 8 (≈ 12.2 µM) | MIC AG036 ANT(4′,4′′) [9]: 32 to 64 µg/mL; MIC AG037 APH(3′)-III [9]: >32 µg/mL; MIC AG103 armA [9]: 1 µg/mL (≈ 1.52 µM); MIC pH414 AAC(6′)-I [9]: 1 μg/ml; MIC pH415 AAC(6′)-II [9]: 1 μg/ml; MIC pH421 APH(3)-I [9]: >32 μg/ml; MIC pH422 APH(3′)-II [9]: >32 μg/ml; MIC pH423 APH(3′)-VI [9]: >32 μg/ml; MIC pH432 ANT(4′) [9]: 1 μg/ml
3 | NCC1OC(OC2C(CNC(N)=O)OC(OC3C(O)C(N)CC(N)C3OC3OC(CO)C(O)C(O)C3N)C2O)C(N)C(O)C1O (stereo not shown) [DC141] | 29 | 89 | 70 | 0.03 | 28 | >128 | >128 | – | 8 (≈ 12.2 µM) | 4 (≈ 6.08 µM) | 4 to 8 | >128 | >128 | 4 (≈ 6.08 µM) | 4 (≈ 6.08 µM) | –
4 | NCC1OC(OC2C(CNC=O)OC(OC3C(O)C(N)CC(N)C3OC3OC(CO)C(O)C(O)C3N)C2O)C(N)C(O)C1O (stereo not shown) [DC137] | 29 | 90 | 144 | 0.04 | 30 | ≥128 | 128 (≈ 199 µM) | – | 4 (≈ 6.22 µM) | 2 to 4 | 4 (≈ 6.22 µM) | >128 | >128 | 2 to 4 | 2 to 4 | –
5 | CC(N)C1OC(OC2C(N)CC(N)C(O)C2OC2OC(CO)C(OC3OC(CN)C(O)C(O)C3N)C2O)C(N)C(O)C1O (stereo not shown) [DC166] | 48 | 26 | 9 | 0.01 | 1 | 128 to 256 | 128 (≈ 204 µM) | 0.5 μg/ml | 2 (≈ 3.18 µM) | 2 (≈ 3.18 µM) | 2 (≈ 3.18 µM) | >128 | >128 | 1 (≈ 1.59 µM) | 2 (≈ 3.18 µM) | MIC AG036 ANT(4′,4′′) [9]: 16 µg/mL (≈ 25.5 µM); MIC AG037 APH(3′)-III [9]: >64 µg/mL; MIC AG103 armA [9]: 1 µg/mL (≈ 1.59 µM); MIC pH414 AAC(6′)-I [9]: 0.5 μg/ml; MIC pH415 AAC(6′)-II [9]: 1-2 μg/ml; MIC pH421 APH(3)-I [9]: >32 μg/ml; MIC pH422 APH(3′)-II [9]: >32 μg/ml; MIC pH423 APH(3′)-VI [9]: >32 μg/ml; MIC pH432 ANT(4′) [9]: 0.5 μg/ml
6 | CC(=O)N[C@H]1[C@@H](O[C@H]2[C@H](O[C@@H]3O[C@H](CO)[C@@H](O[C@H]4O[C@@H](CN)[C@@H](O)[C@H](O)[C@H]4N)[C@H]3O)[C@@H](O)[C@H](N)C[C@@H]2N)O[C@H](CN)[C@@H](O)[C@@H]1O [DC-183] | 103 | 147 | 93 | 5.3 | 28 | >32 | >32 | – | >32 | >32 | >32 | >32 | >32 | – | >32 | Target specificity bacterial vs. Cytosolic [2]: low; Target specificity bacterial vs. Mitochondrial [3]: low
7 | CCNC1C(OC2C(N)CC(N)C(O)C2OC2OC(CO)C(OC3OC(CN)C(O)C(O)C3N)C2O)OC(CN)C(O)C1O (stereo not shown) [DC-172] | 45 | 43 | 11 | 0.01 | 1.6 | >64 | >64 | – | 1 to 2 | 1 (≈ 1.56 µM) | 0.5 (≈ 0.778 µM) | >32 | >32 | 1 (≈ 1.56 µM) | 1 (≈ 1.56 µM) | –
8 | CC1CC(N)C2OC(OC3C(N)CC(N)C(O)C3OC3OC(CO)C(OC4OC(CN)C(O)C(O)C4N)C3O)C(N)C(O)C2O1 (stereo not shown) [DC150] | 13 | 12 | 4.1 | 0.48 | 2.3 | >128 | >128 | 64-128 μg/ml | >128 | >128 | 128 (≈ 196 µM) | 128 (≈ 196 µM) | 128 (≈ 196 µM) | 128 (≈ 196 µM) | >128 | Target specificity bacterial vs. Cytosolic [2]: low; Target specificity bacterial vs. Mitochondrial [3]: low
9 | NC[C@H]1O[C@H](O[C@H]2[C@H](O[C@@H]3O[C@H](CNC=O)[C@@H](O)[C@H]3O)[C@@H](O)[C@H](N)C[C@@H]2N)[C@H](N)[C@@H](O)[C@@H]1O [DC130] | 152 | 359 | 364 | 0.24 | 190 | >128 | >128 | – | 32 (≈ 66.5 µM) | 32 (≈ 66.5 µM) | 64 (≈ 133 µM) | >128 | >128 | 128 (≈ 266 µM) | 32 (≈ 66.5 µM) | –
10 | NCC1OC(OC2C(CO)OC(OC3C(O)C(N)CC(N)C3OC3OC(CN)C(O)C(O)C3NC=O)C2O)C(N)C(O)C1O (stereo not shown) [DC-182] | 110 | 127 | 54 | 0.12 | 13 | – | – | – | – | – | – | – | – | – | – | MIC [4, 10]: > 32 µg/mL; MIC [4, 11]: > 32 µg/mL; MIC [5, 12]: 4 to 8 µg/mL (≈ 6.22 to 12.4 µM); MIC [5, 13]: 2 µg/mL (≈ 3.11 µM); MIC [7, 14]: 2 to 4 µg/mL (≈ 3.11 to 6.22 µM); MIC [7, 15]: > 32 µg/mL; MIC [7, 16]: > 32 µg/mL; MIC [9]: 4 to 8 µg/mL (≈ 6.22 to 12.4 µM)
